Results on eleven compounds are retold here after patent EP0314828A1, “4-Phenyl-1,2,3,4-tetrahydroisoquinolins as ulcer agents” (S O "PHARMACHIM", priority 1987, dated 1989).

One data set is described as follows: acute toxicity in mice. The settings on record: mouse, in vivo, Mäusen, read-out: LD₅₀.
The subject of another data set is Geschwüren nach Shei. Nature of the data set: ulcer model according to Shei (ligature) in rats. Format: in vivo, Ratten. The following applies: Table 7, Kontrolle 16. The source says: Die Versuche wurden mit weißen, männlichen Ratten, Rasse Wistar, mit einem Gewicht von 180 bis 270 g durchgeführt. Die Tiere werden 48 Stunden nicht gefüttert bei freiem Zugang zu Wasserquellen. 5 Stunden nach der Ligatur werden die Tiere getötet, die Mägen werden herausgenommen und die destruktiven Veränderungen makroskopisch untersucht. Als Vergleichspräparate wurden Cimetidin und Ranitidin angewandt (Tabelle 7). TABELLE 7

For data set [1], the system named is durch Indometacin hervorgerufenen Geschwüren. Nature of the data set: indometacin-induced ulcer model in rats. It is filed as in vivo, Ratten. As to the method: Die Versuche werden mit 50 weißen, männlichen Ratten der Rasse Wistar mit einem Gewicht von 170 bis 200 g durchgeführt. Achtzehn Stunden vor dem Versuch werden die Tiere nicht gefüttert bei freiem Zugang zu Wasserquellen. Das Indometacin wird in einer Dosis von 35 mg/kg intraperitoneal eine halbe Stunde nach der peroralen Verabreichung der Verbindung Ia, eingeführt. In der fünften Stunde werden die Tiere getötet, die Mägen werden herausgenommen und es werden makroskopisch die destruktiven Veränderungen bestimmt. TABELLE 5

The test system of data set [2] is durch Reserpin hervorgerufenen Geschwüren. Nature of the data set: reserpine-induced ulcer model in rats. The settings on record: for Prozentsatz der Unterdrückung des Ulkusindexes / Ulkusindex: Table 6, rats; for Ulkusindex: Kontrolle 44,58. The arrangement: Ulkusindex: scale not given here. It is filed as in vivo, Ratten. As to the method: Die Versuche werden mit 180 weißen, männlichen Ratten - Rasse Wistar - mit einem Gewicht von 180 bis 270 g durchgeführt. Die Tiere werden 48 Stunden nicht gefüttert bei freiem Zugang zu Wasserquellen. Die Geschwüre wurden hervorgerufen durch die Injektion von 5 mg/kg Reserpin. Eine halbe Stunde vor Einführung des Reserpins erhalten die Tiere peroral verschiedene Dosen von Ia, die Kontrolltiere Wasser, 24 Stunden nach Einführung des Reserpins werden die Tiere mit Thiopental getötet. Die destruktiven Magenveränderungen werden makroskopisch bestimmt. Es wurden Vergleichsuntersuchungen mit Cimetidin und Ranitidin (Tabelle 6) durchgeführt.

Data set [3] relates to Wasser-Immersions-Streßgeschwüren. Nature of the data set: water-immersion stress ulcer model in rats, oral administration. It is filed as in vivo, Ratten. Also noted: Ulkusindex: scale not given here. The settings on record: for Prozent der Unterdrückung des Ulkusindexes / Ulkusindex / Prozentsatz der Unterdrückung des Ulkusindexes: rats. An excerpt:
Die Versuche werden mit 280 weißen männlichen Ratten - Wistar-Rasse - mit einem Gewicht von 150 bis 200 g nach der Takagi K., Ishii Y, Arzneim. Forsch. Drug.Res. 17, 1544 (1967) Methode durchgeführt und entsprechend modifiziert. Achtzehn Stunden vor dem Versuch werden die Tiere nicht gefüttert bei freiem Zugang zu Wasserquellen. Die Verbindungen der allgemeinen Formel I werden oral verabreicht; anschließend werden die Ratten, zur Verhinderung jeglicher Bewegung, auf dem Rücken an einer Unterlage angebunden, untereinander isoliert und in bis auf 17 - 18° C temperiertes Wasser getaucht. Fünf Stunden später wurden die Tiere getötet, ihre Mägen herausgenommen und makroskopische destruktive Änderungen festgestellt.
Die Prüfmethode ist dieselbe wie in Beispiel 1.

The next data set relates to Streßgeschwüren. The settings on record: experimental models of stress ulcers in mice; M. Bickel, Arzn.Forsch. 30 (1), 69, 1980; cited from earlier work.
A further data set concerns sauere Magensekret. The settings on record: in contrast to Histamin-H₂-Antagonisten; M. Bickel, Arzn.Forsch. 30 (1), 69, 1980; cited from earlier work.
Setting [4] is: Table 1, peroral, Dosis 1 mg/kg, 5 h immersion.
The mark [5] stands for this setting: Table 1, peroral, Dosis 1 mg/kg, 5 h immersion, Kontrolle 55,1.

Structures are written as SMILES. Read-outs that look alike come from different tables or passages of the source.

Regarding `CCOC(=O)Nc1cccc2c1CN(C)CC2c1ccc(Cl)cc1` (racemic) [Ia, 2-Methyl-4-/4-Chlorphenyl/-8-Ethoxykarbonylamino-1,2,3,4-tetrahydroisochinolin], the LD50 is 125 mg/kg in the data set “acute toxicity in mice” (ip, intraperitoneal) and 250 mg/kg in the data set “acute toxicity in mice” (oral). Moreover, the Ulkusindex is recorded as 22 in the data set on Geschwüren nach Shei (rats, 0,100 mg/kg, 5 h after ligature); 13 with Geschwüren nach Shei (rats, 0,500 mg/kg); 7,13 in the data set on Geschwüren nach Shei (rats, 1,5 mg/kg); 8,25 in the data set with Geschwüren nach Shei (rats, 1,000 mg/kg); 12,2 in data set [1] (Table 5, peroral, 0,050 mg/kg, Indometacin 35 mg/kg i.p., Kontrolle 19,5); 10,4 in data set [1] (Table 5, peroral, 0,250 mg/kg, Kontrolle 19,5). In addition, the Ulkusindex was 9,3 in data set [1] (Table 5, peroral, 0,500 mg/kg, Kontrolle 19,5); 4,2 in data set [1] (Table 5, peroral, 1,100 mg/kg, Kontrolle 19,5); 12,2 in data set [1] (peroral, minimal dose printed as 0,1 mg/kg, Kontrolltiere 19,5); 23,5 in data set [2] (peroral, 1 mg/kg); 19,00 in data set [2] (peroral, 2 mg/kg); 26,00 in data set [2] (peroral, 3 mg/kg). Also, the Ulkusindex is reported as 41,5 in data set [2] (peroral, 0,250 mg/kg, Reserpin 5 mg/kg); 37 in data set [2] (peroral, 0,500 mg/kg); 21,33 in data set [2] (peroral, 1,5 mg/kg); 4,33 in data set [3] (setting [5]); 41,3 in data set [3] (Table 3, oral, 0,100 mg/kg, Kontrolle 76.6); 32,7 in data set [3] (Table 3, oral, 0,250 mg/kg, Kontrolle 76.6). In addition, the Ulkusindex in data set [3] (Table 3, oral, 0,500 mg/kg, Kontrolle 76.6) was 18,8; in data set [3] (Table 3, oral, 1,000 mg/kg, Kontrolle 76.6), 11,3. In addition, the “Prozentsatz der Unterdrückung des Ulkusindexes” value in data set [1] (Table 5, peroral, 0,050 mg/kg) is 37 Prozent; in data set [1] (Table 5, peroral, 0,250 mg/kg) it was 40,6 Prozent; in data set [1] (Table 5, peroral, 0,500 mg/kg), 52 Prozent; in data set [1] (Table 5, peroral, 1,100 mg/kg) it was 78 Prozent; in data set [2] (peroral, 1 mg/kg), 47,2 Prozent; in data set [2] (peroral, 2 mg/kg) it was 57,37 Prozent. Further, the “Prozentsatz der Unterdrückung des Ulkusindexes” value in data set [2] (peroral, 3 mg/kg) was 41,00 Prozent; in data set [2] (peroral, 0,250 mg/kg), 6,9 Prozent; in data set [2] (peroral, 0,500 mg/kg), 17 Prozent; in data set [2] (peroral, 1,5 mg/kg), 52,15 Prozent. Moreover, in data set [1] (peroral, minimal dose printed as 0,1 mg/kg), the Unterdrückungsprozentsatz is reported as 37. Besides, the “Ulkuseffekt gegenüber Vergleichspräparaten Cimetidin und Ranitidin” value in data set [2] (maximal effect of Ia at 1,5 and 2 mg/kg vs Cimetidin 100 mg/kg and Ranitidin 30 mg/kg) is reported as “mehrfach höher”. The “Prozent der Unterdrückung des Ulkusindexes” value in data set [3] (setting [4]) is given as 92,1 Prozent; in data set [3] (Table 3, oral, 0,100 mg/kg), 46 Prozent; in data set [3] (Table 3, oral, 0,250 mg/kg), 57,3 Prozent; in data set [3] (Table 3, oral, 0,500 mg/kg), 75,5 Prozent; in data set [3] (Table 3, oral, 1,000 mg/kg), 85,00 Prozent. Besides, the “höhere Ulkusaktivität im Vergleich zu Ranitidin” value in data set [3] (ratio of doses for maximal suppression: Ia 1 mg/kg vs Ranitidin 30 mg/kg (Tables 3 and 4)) amounted to 30 fach.
As to `CCOC(=O)Nc1cccc2c1CN(C)CC2c1ccc(Cl)cc1.O=C(O)/C=C\C(=O)O` (racemic) [Ib, /+/-2-Methyl-4-/4-chlorphenyl/8-ethoxycarbonylamino-1,2,3,4-tetrahydroisochinolin-saures Maleat], the Ulkusindex in data set [3] (setting [5]) is recorded as 7,00. The “Aktivität im Vergleich mit /+/(Ib)” value in data set [3] (Table 1 data, 1 mg/kg peroral) was “vierfach niedrigere Aktivität”.
Consider `CCOC(=O)Nc1cccc2c1CN(C)CC2c1ccccc1` (racemic) [Ie, 2-Methyl-4-phenyl-8-ethoxycarbonylamino-1,2,3,4-tetrahydroisochinolin], for which, in data set [3] (setting [4]), the “Prozent der Unterdrückung des Ulkusindexes” value is recorded as 40,60 Prozent. Also, the Ulkusindex in data set [3] (setting [5]) is reported as 32,70.
On to `CCOC(=O)Nc1cccc2c1CN(C)CC2c1ccccc1` (racemic) [If, /+/-2-Methyl-4-phenyl-8-ethoxycarbonylamino-1,2,3,4-tetrahydroisochinolin], for which the “Prozent der Unterdrückung des Ulkusindexes” value in data set [3] (setting [4]) is recorded as 36,30 Prozent. In data set [3] (setting [5]), the Ulkusindex is on record as 35,10.
For `CN1Cc2c(N)cccc2C(c2ccccc2)C1.O=C(O)/C=C\C(=O)O` (stereo not drawn) [Alival, 2-Methyl-4-phenyl-8-amino-1,2,3,4-tetrahydroisochinolin-saueres-Maleat], the Antigeschwüreffekt entry with Streßgeschwüren is recorded as “einen Antigeschwüreffekt aufweist”. In addition, the “Inhibierung des saueren Magensekrets” value in the data set on sauere Magensekret is “nicht inhibiert”.
Regarding `CNC(=NCCSCc1nc[nH]c1C)NC#N` [Cimetidin, N-Cyan-N-methyl-N-2/ 4-methyl-imidazolin/methylthio-ethylguanidinium, reference compound], the Ulkusindex in the data set on Geschwüren nach Shei (rats, 100 mg/kg) was 12,2; in data set [2] (100 mg/kg), 27,62. Besides, the “Prozentsatz der Unterdrückung des Ulkusindexes” value in data set [2] (100 mg/kg) was 38,00 Prozent.
For `CCOC(=O)Nc1cccc2c1CN(C)CC2c1ccc(Cl)cc1.O=C(O)/C=C\C(=O)O` (stereo not drawn) [Ic, /-/-2-Methyl-4-/4-chlorphenyl/8-ethoxycarbonylamino-1,2,3,4-tetrahydroisochinolin-saures Maleat], the “Prozent der Unterdrückung des Ulkusindexes” value in data set [3] (setting [4]) was 28,20 Prozent. Further, in data set [3] (setting [5]), the Ulkusindex is given as 39,58.
In the case of `CN1Cc2c(N)cccc2C(c2ccc(Cl)cc2)C1` (stereo not drawn) [Id, 2-Methyl-4-/4-chlorphenyl/-8-amino-1,2,3,4-tetrahydroisochinolin], in data set [3] (setting [4]), the “Prozent der Unterdrückung des Ulkusindexes” value is recorded as 86,40 Prozent. Besides, in data set [3] (setting [5]), the Ulkusindex is on record as 7,50.
Take `CCOC(=O)Nc1cccc2c1CN(C)CC2c1ccccc1.O=C(O)/C=C\C(=O)O` (stereo not drawn) [Ig, /-/-2-Methyl-4-phenyl-8-ethoxycarbonylamino-1,2,3,4-tetrahydroisochinolin-saures Maleat]: the “Prozent der Unterdrückung des Ulkusindexes” value in data set [3] (setting [4]) is 48,00 Prozent. For the same compound, in data set [3] (setting [5]), the Ulkusindex is 28,60.
Consider `CN1Cc2c(Cl)cccc2C(c2ccccc2)C1` (stereo not drawn) [Ih, 2-Methyl-4-phenyl-8-chlor-1,2,3,4-tetrahydroisochinolin], for which, in data set [3] (setting [4]), the “Prozent der Unterdrückung des Ulkusindexes” value is 36,60 Prozent. Also, in data set [3] (setting [5]), the Ulkusindex is 34,90.
`CNC(=C[N+](=O)[O-])NCCSCc1ccc(CN(C)C)o1` [Ranitidin, N-/5-Dimethylamino-methyl/-2-furanil-methyl-thioethyl-/N-methyl-2-nitro/-1,1-ethan-diamin, reference compound]: the Ulkusindex is 9 with Geschwüren nach Shei (rats, 30 mg/kg); 23,00 in data set [2] (30 mg/kg); 32,3 in data set [3] (Table 4, peroral, 0,5 mg/kg, Kontrolle 44,3); 26,9 in data set [3] (Table 4, peroral, 1 mg/kg, Kontrolle 44,3); 28,4 in data set [3] (Table 4, peroral, 3 mg/kg, Kontrolle 44,3); 22,6 in data set [3] (Table 4, peroral, 10 mg/kg, Kontrolle 44,3). In addition, the Ulkusindex in data set [3] (Table 4, peroral, 30 mg/kg, Kontrolle 44,3) is listed as 17,0. Besides, the “Prozentsatz der Unterdrückung des Ulkusindexes” value is listed as 48,40 Prozent in data set [2] (30 mg/kg); around 27 Prozent in data set [3] (Table 4, peroral, 0,5 mg/kg); 39,27 Prozent in data set [3] (Table 4, peroral, 1 mg/kg); 35,89 Prozent in data set [3] (Table 4, peroral, 3 mg/kg); 48,98 Prozent in data set [3] (Table 4, peroral, 10 mg/kg); 61,62 Prozent in data set [3] (Table 4, peroral, 30 mg/kg).
